Measured values as given in ChEMBL document CHEMBL1137184, “Anti-HIV activity of some synthetic lignanolides and intermediates” (Bioorg Med Chem Lett, 2004).

Columns and labels:
[1] = Compound was evaluated for toxicity in necrosis using MT2 assay at 25 uM concentration at 24 hr; conditions: human
[2] = Compound was evaluated for toxicity in necrosis using MT2 assay at 50 uM concentration at 24 hr; conditions: human
[3] = system: Human immunodeficiency virus 1; experiment: Compound was evaluated for the inhibition of HIV-1 LTR by TNF-alpha-induced NF-kB assay at 25 uM concentration (TNF-alpha-treated cells); format: functional
[4] = system: Human immunodeficiency virus 1; experiment: Compound was evaluated for the inhibition of HIV-1 LTR by TNF-alpha-induced NF-kB assay at 50 uM concentration (TNF-alpha-treated cells); format: functional
[5] = system: Human immunodeficiency virus 1; experiment: Compound was evaluated for the inhibition of HIV-1 LTR by TNF-alpha-induced NF-kB assay at 100 uM concentration (TNF-alpha-treated cells); format: functional
[6] = system: Human immunodeficiency virus 1; experiment: Compound was evaluated for anti-Tat activity in the HeLa-TAT-Luc cell assay against human immunodeficiency virus at 25 uM concentration (Untreated cells); format: functional
[7] = system: Human immunodeficiency virus 1; experiment: Compound was evaluated for anti-Tat activity in the HeLa-TAT-Luc cell assay against human immunodeficiency virus at 50 uM concentration (Untreated cells); format: functional
[8] = system: Human immunodeficiency virus 1; experiment: Compound was evaluated for anti-Tat activity in the HeLa-TAT-Luc cell assay against human immunodeficiency virus at 100 uM concentration (Untreated cells); format: functional
[9] = system: Human immunodeficiency virus 1; experiment: Compound was evaluated for the inhibition of HIV-1 LTR by HeLa-Tet-ON assay at 50 uM concentration; format: functional
[10] = system: Human immunodeficiency virus 1; experiment: Compound was evaluated for the inhibition of HIV-1 LTR by HeLa-Tet-ON assay at 25 uM concentration; format: functional
[11] = system: Human immunodeficiency virus 1; experiment: Compound was evaluated for anti-Tat activity in the HeLa-TAT-Luc cell assay against human immunodeficiency virus at 50 uM concentration (Untreated cells);toxic at this dose; format: functional, organism-based
[12] = system: Human immunodeficiency virus 1; experiment: Compound was evaluated for anti-Tat activity in the HeLa-TAT-Luc cell assay against human immunodeficiency virus at 100 uM concentration (Untreated cells);toxic at this dose; format: functional, organism-based
[13] = system: Human immunodeficiency virus 1; experiment: Compound was evaluated for the inhibition of HIV-1 LTR by TNF-alpha-induced NF-kB assay at 100 uM concentration (TNF-alpha-treated cells);toxic at this dose; format: functional, organism-based
[14] = system: Human immunodeficiency virus 1; experiment: Compound was evaluated for activity in Recombinant virus assay at concentration that reduces luciferase activity, thus recombinant virus replication; format: functional, organism-based
[15] = Compound was evaluated for IP toxicity at concentration that reduces cellular growth; conditions: human

With `COc1cc([C@@H]2c3cccc4cccc(c34)C3(SCCCS3)[C@H](CO)[C@@H]2CO)cc(OC)c1OC` the Cell death [1] was 7.9%, the Cell death [2] was 6.7% and the inhibition at 25 µM [3] was 43.5%. It also gave an inhibition at 50 µM [4] of 35.2%, an inhibition at 100 µM [5] of 25.2% and an inhibition at 25 µM [6] of 11.7%. It also gave an inhibition at 50 µM [7] of 17.6% and an inhibition at 100 µM [8] of 16.4%.
With `COC(=O)[C@H]1[C@H](c2cc(OC)c(OC)c(OC)c2)c2c(ccc3ccccc23)C(=O)[C@]12CCN=N2` the Cell death [1] was 30, the Cell death [2] was 43.1 and the inhibition at 50 µM [9] was greater than 15%. The inhibition at 25 µM [3] was 32.9%, the inhibition at 50 µM [4] was 87.1% and the inhibition at 100 µM [5] was 92%. The inhibition at 25 µM [6] was 38.8%, the inhibition at 50 µM [7] was 42.2% and the inhibition at 100 µM [8] was 46%. It also gave an inhibition at 25 µM [10] greater than 15%.
For `COc1cc(C2C(=O)OCC2C(=O)c2cccc3ccccc23)cc(OC)c1OC` (configuration not stated), the inhibition [11] was “Toxic”, the inhibition [12] was “Toxic” and the Cell death [1] was 6.2%. For the same molecule, the Cell death [2] was 7.6%, the inhibition at 50 µM [9] was greater than 15% and the inhibition at 25 µM [3] was 1.5%. The inhibition at 50 µM [4] was 24.9%, the inhibition at 25 µM [6] was 11.6% and the inhibition [13] was “Toxic”. The inhibition at 25 µM [10] was greater than 15%.
For `COc1cc([C@@H]2c3c(ccc4ccccc34)C(=O)[C@H]3COC(=O)[C@@H]23)cc(OC)c1OC`, the Cell death [1] was 5.5%, the Cell death [2] was 4.5% and the inhibition at 50 µM [9] was greater than 15%. The inhibition at 25 µM [3] was 32.9%, the inhibition at 50 µM [4] was 25.8% and the inhibition at 100 µM [5] was 95.5%. For the same molecule, the inhibition at 25 µM [6] was -0.6%, the inhibition at 50 µM [7] was 60% and the inhibition at 100 µM [8] was 43%. The inhibition at 25 µM [10] was less than 15%.
`COc1cc(C(O)[C@@H]2C(=O)OCC2C(=O)c2cccc3ccccc23)cc(OC)c1OC` (some centres not stated) gave a Cell death [1] of 32.1%, a Cell death [2] of 45.7% and an inhibition at 50 µM [9] greater than 15%. The inhibition at 25 µM [3] was 37.5%, the inhibition at 50 µM [4] was 64.2% and the inhibition at 25 µM [6] was 1.6%. For the same molecule, the inhibition at 50 µM [7] was 18%, the inhibition at 100 µM [8] was 65% and the inhibition [13] was “Toxic”. For the same molecule, the inhibition at 25 µM [10] was greater than 15%.
Molecule `CCn1c2ccccc2c2cc(C3(C4COC(=O)[C@@H]4C(O)c4cc(OC)c(OC)c(OC)c4)SCCCS3)ccc21` (some centres not stated) has a Cell death [1] of 4.6%, a Cell death [2] of 4% and an inhibition at 50 µM [9] of less than 15%. It also gave an inhibition at 25 µM [3] of 38.5%, an inhibition at 50 µM [4] of 39.7% and an inhibition at 100 µM [5] of 43.7%. It also gave an IC50 [14] of 26.8 µM, an inhibition at 25 µM [6] of 11.9% and an inhibition at 50 µM [7] of 20.3%. For the same molecule, the inhibition at 100 µM [8] was 30.7%, the CC50 [15] was greater than 50 µM and the inhibition at 25 µM [10] was less than 15%.
`COc1cc([C@H]2c3c(ccc4ccccc34)C3(SCCCS3)[C@H]3COC(=O)[C@H]23)cc(OC)c1OC` showed an inhibition at 25 µM [3] of 17.6%, an inhibition at 50 µM [4] of 10.8% and an inhibition at 100 µM [5] of -11.7%. The inhibition at 25 µM [6] was -9.1%, the inhibition at 50 µM [7] was -9.4% and the inhibition at 100 µM [8] was -19%.
In the case of `COc1cc([C@@H]2c3cccc4cccc(c34)C3(SCCCS3)[C@@H]3COC(=O)[C@@H]23)cc(OC)c1OC`, the Cell death [1] is reported as 10.3%, the Cell death [2] is reported as 10.5% and the inhibition at 25 µM [3] is reported as 21.8%. It also gave an inhibition at 50 µM [4] of 38%, an inhibition at 100 µM [5] of 23.6% and an inhibition at 25 µM [6] of -35.9%. For the same molecule, the inhibition at 50 µM [7] was -39.7% and the inhibition at 100 µM [8] was -40.9%.
Work on `COc1cc(C(O)[C@H]2C(=O)OCC2C2(c3ccc4ccccc4c3)SCCCS2)cc(OC)c1OC` (some centres not stated) yielded a Cell death [1] of 11.4%, a Cell death [2] of 14.6% and an inhibition at 50 µM [9] greater than 15%. The inhibition at 25 µM [3] was 77%, the inhibition at 50 µM [4] was 57.2% and the inhibition at 100 µM [5] was 65.9%. It also gave an inhibition at 25 µM [6] of 36.6%, an inhibition at 50 µM [7] of 38.8% and an inhibition at 100 µM [8] of 30.9%. It also gave an inhibition at 25 µM [10] greater than 15%.
For `C=C1C(=O)c2ccc3ccccc3c2[C@@H](c2cc(OC)c(OC)c(OC)c2)[C@@H]1C(=O)OC`, the inhibition [11] was “Toxic”, the inhibition [12] was “Toxic” and the Cell death [1] was 95%. It also gave a Cell death [2] of 98%, an inhibition at 50 µM [9] greater than 15% and an inhibition at 25 µM [3] of 96.7%. The inhibition at 50 µM [4] was 98.9%, the inhibition at 25 µM [6] was 56.2% and the inhibition [13] was “Toxic”. It also gave an inhibition at 25 µM [10] of less than 15%.
`O=C1CC(C2(c3cccc4ccccc34)SCCCS2)CO1` (configuration not stated) showed a Cell death [1] of 2.9%, a Cell death [2] of 3.5% and an inhibition at 50 µM [9] greater than 15%. The inhibition at 25 µM [3] was 3%, the inhibition at 50 µM [4] was 24.2% and the inhibition at 100 µM [5] was 81%. It also gave an inhibition at 25 µM [6] of 6%, an inhibition at 50 µM [7] of 9.7% and an inhibition at 100 µM [8] of 25.6%. The inhibition at 25 µM [10] was less than 15%.
In the case of `COc1cc2c(c(OC)c1OC)[C@]13C(=O)OC[C@H]1[C@@H](C)c1cccc4cccc(c14)[C@@H]23`, the Cell death [1] is reported as 7.8%, the Cell death [2] is reported as 11.3% and the inhibition at 50 µM [9] is reported as less than 15%. The inhibition at 25 µM [3] was 73.6%, the inhibition at 50 µM [4] was 56.1% and the IC50 [14] was 2.29 µM. It also gave an inhibition at 25 µM [6] of -53.1%, an inhibition at 50 µM [7] of -52.9% and an inhibition at 100 µM [8] of -53.1%. For the same molecule, the CC50 [15] was greater than 50 µM and the inhibition at 25 µM [10] was less than 15%.
For `CCn1c2ccccc2c2cc(C3(C4COC(=O)C4)SCCCS3)ccc21` (configuration not stated), the Cell death [1] was 4.9%, the Cell death [2] was 4.2% and the inhibition at 50 µM [9] was less than 15%. The inhibition at 25 µM [3] was -7.1%, the inhibition at 50 µM [4] was 30% and the inhibition at 100 µM [5] was 17.6%. It also gave an IC50 [14] of 4.52 µM, an inhibition at 25 µM [6] of 43.4% and an inhibition at 50 µM [7] of 41.5%. It also gave an inhibition at 100 µM [8] of 40.1%, a CC50 [15] greater than 50 µM and an inhibition at 25 µM [10] of less than 15%.
